{"source": "patent US10155021B2", "about": "“Antimicrobial 4-oxoquinolizines” (Emergent Product Development Gaithersburg Inc., priority 2011, dated 2018)", "type_in_all_cases": "cell-based", "key": {"[1]": {"test_system": "K. pneumoniae BAA-2146 (NDM-1, FQ-R)", "test": "MIC on K. pneumoniae (Example 5)", "conditions": "Klebsiella pneumoniae, BAA2146, read-out: MIC K. pneumoniae BAA-2146 (NDM-1, FQ-R)", "protocol": "MIC Values for all compounds were measured against a selection of bacterial strains. The MICs of 4-oxoquinolizines against a selection of Gram-negative and Gram-positive bacterial strains are shown in Table 13 in comparison with known antibiotics."}, "[2]": {"test_system": "GN31 Acinetobacter baumannii", "test": "Pre-chequerboard MIC, broth microdilution (Example 6)", "conditions": "antibiotic susceptible clinical isolate", "source_text": "(§1) A chequerboard technique was used to identify possible synergistic or antagonistic interactions between the 4-oxoquinolizines compounds, levofloxacin and polymyxin B. Levofloxacin was included as a control. […] Final dilutions were made in Mueller-Hinton broth, the specific test medium used for MIC determinations according to CLSI guidelines (CLSI. Methods for Dilution Antimicrobial Susceptibility Tests for Bacteria That Grow Aerobically; Approved Standard-Eighth Edition (2009). CLSI Document M07-A8. CLSI, Wayne, Pa. 19087-1898, USA.). The test medium used was a cation-adjusted Mueller-Hinton Broth II (Becton Dickinson UK Ltd., Oxford Science Park, Oxford, UK, OX4 4DQ).\n(§2) The compounds 2, 33 and 35, as well as levofloxacin were tested in combination with polymyxin B on the following isolates: GN31 Acinetobacter baumannii—antibiotic susceptible clinical isolate, GN52 Acinetobacter baumannii—levofloxacin resistant clinical isolate, GN56 Acinetobacter baumannii—levofloxacin resistant clinical isolate, GN48 Klebsiella pneumoniae—NCTC 13443—NDM-1-metallo-R-lactamase and GN10 Pseudomonas aeruginosa—ATCC 27853—antibiotic susceptible reference isolate. All isolates are from the collection maintained at Quotient Bioresearch Ltd., Cambridge, UK.\n(§3) The MIC values for the compounds and polymyxin B and levofloxacin were determined by broth microdilution following CLSI guidelines, and the MICs of agents in combination were determined as described by Pillai et.al (Pillai S K, Moellering R C Jr, Eliopoulis G M; Antimicrobial Combinations in Antibiotics in Laboratory Medicine 5th Edition (V. Lorian Ed) (2005) p 365-440). Initial MIC results were used to determine the microtiter plate patterns for the chequerboards. A suitable doubling dilution concentration range was selected such that the combination antibiotic range was at least two concentrations above and four concentrations below the MIC for each isolate. A fixed range of 0.008 to 8 mg/L was tested for polymyxin B except in the case of A. baumannii GN31 where a range of 0.004 to 4 mg/L was tested when in combination with the compounds 2, 33 and 35 as well as levofloxacin."}, "[3]": {"test_system": "GN56 Acinetobacter baumannii", "test": "Pre-chequerboard MIC, broth microdilution (Example 6)", "conditions": "levofloxacin resistant clinical isolate", "source_text": "as §1, §2, §3"}, "[4]": {"test_system": "GN48 Klebsiella pneumoniae", "test": "Pre-chequerboard MIC, broth microdilution (Example 6)", "conditions": "GN48 / NCTC 13443, NCTC 13443, NDM-1", "source_text": "as §1, §2, §3"}, "[5]": {"test_system": "GN10 Pseudomonas aeruginosa", "test": "Pre-chequerboard MIC, broth microdilution (Example 6)", "conditions": "ATCC 27853 / GN10, ATCC 27853, antibiotic susceptible", "source_text": "as §1, §2, §3"}, "[6]": {"test_system": "GN52 Acinetobacter baumannii", "test": "Pre-chequerboard MIC, broth microdilution (Example 6)", "conditions": "levofloxacin resistant clinical isolate", "source_text": "as §1, §2, §3"}, "[7]": {"test_system": "GN48 Klebsiella pneumoniae", "test": "Chequerboard synergy with polymyxin B (FICI)", "source_text": "as §1, §2, §3\nFrom the raw data, fractional inhibitory concentration indices (FICI) were determined for the compounds of the invention and levofloxacin together with polymyxin B for each isolate as follows: FICI=FICX+FICY Where,\nFICX=concentration of the combination antibiotic in a particular row÷MIC of the combination drug alone\nFICY=MIC of polymyxin B in combination÷MIC of the polymyxin B alone\nAdditionally isobolograms were created to represent the same data visually. Here, the MIC of polymyxin B was plotted against every concentration of the combination antibiotic up to the MIC."}}, "data": [{"smiles": "Cc1c(-c2ccc(N)nc2)ccn2c(=O)c(C(=O)[O-])cc(C3CC3)c12.[K+]", "note": "[Compound 33 K salt, potassium 8-(6-amino-pyridin-3-yl)-1-cyclopropyl-9-methyl-4-oxo-4H-quinolizine-3-carboxylate]", "values": [{"measurement": "MIC", "setting": "[1]", "value": "> 8", "unit": "µg/mL"}]}, {"smiles": "Cc1c(-c2ccc(N)nc2)ccn2c(=O)c(C(=O)O)cc(C3CC3)c12", "note": "[Compound 33, 8-(6-amino-3-pyridyl)-1-cyclopropyl-9-methyl-4-oxo-quinolizine-3-carboxylic acid]", "values": [{"measurement": "MIC", "setting": "[2]", "value": 0.03, "unit": "µg/mL"}, {"measurement": "MIC", "setting": "[3]", "value": 16, "unit": "µg/mL"}, {"measurement": "MIC", "setting": "[4]", "value": 16, "unit": "µg/mL"}, {"measurement": "MIC", "setting": "[5]", "value": 0.5, "unit": "µg/mL"}, {"measurement": "MIC", "setting": "[6]", "value": 2, "unit": "µg/mL"}]}, {"smiles": "Cc1c(-c2ccc3[nH]ncc3c2)ccn2c(=O)c(C(=O)O)cc(C3CC3)c12", "note": "[Compound 35, 8-(1H-indazol-5-yl)-1-cyclopropyl-9-methyl-4-oxo-quinolizine-3-carboxylic acid]", "values": [{"measurement": "MIC", "setting": "[2]", "value": 0.03, "unit": "µg/mL"}, {"measurement": "MIC", "setting": "[3]", "value": 8, "unit": "µg/mL"}, {"measurement": "MIC", "setting": "[4]", "value": 16, "unit": "µg/mL"}, {"measurement": "MIC", "setting": "[5]", "value": 0.25, "unit": "µg/mL"}, {"measurement": "MIC", "setting": "[6]", "value": 2, "unit": "µg/mL"}, {"measurement": "Combination drug MIC alone", "setting": "[7]", "value": 16, "unit": "µg/mL"}, {"measurement": "Synergy", "setting": "[7]; combination with polymyxin B", "value": "partial synergy"}]}]}
